Laboratory results reported in patent US20090306133A1, “New Acetyl Coenzyme A Carboxylase (ACC) Inhibitors And Uses In Treatments Of Obesity And Diabetes Mellitus - 087” (ASTRAZENECA AB, priority 2007, published 2009).

Assays:
[1] = target: Human recombinant Acetyl-CoA Carboxylase 1 (ACC1) (Homo sapiens, UniProt Q13085); test: Assay Y: ACC1 inhibition, inorganic phosphate (Malachite Green); assay type: biochemical; conditions: Assay Y: room temperature, 3 hr, 15 min preincubation
Method in brief: (§1)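 Enzyme preincubated with compound 15 min before substrate addition; reaction run 3 h, then phosphate detected with Malachite Green at 670 nm after 10 min at room temperature. Triplicate 10-point titrations; IC50 by non-linear four-parameter curve fitting.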

[2] = target: Human recombinant Acetyl-CoA Carboxylase 2 (ACC2) (Homo sapiens, UniProt O00763); test: Assay Y: ACC2 inhibition, inorganic phosphate (Malachite Green); assay type: biochemical; conditions: Assay Y: room temperature, 3 hr, 15 min preincubation
Method in brief: as §1

Chain of Human recombinant Acetyl-CoA Carboxylase 2 (ACC2) (O00763 whole entry): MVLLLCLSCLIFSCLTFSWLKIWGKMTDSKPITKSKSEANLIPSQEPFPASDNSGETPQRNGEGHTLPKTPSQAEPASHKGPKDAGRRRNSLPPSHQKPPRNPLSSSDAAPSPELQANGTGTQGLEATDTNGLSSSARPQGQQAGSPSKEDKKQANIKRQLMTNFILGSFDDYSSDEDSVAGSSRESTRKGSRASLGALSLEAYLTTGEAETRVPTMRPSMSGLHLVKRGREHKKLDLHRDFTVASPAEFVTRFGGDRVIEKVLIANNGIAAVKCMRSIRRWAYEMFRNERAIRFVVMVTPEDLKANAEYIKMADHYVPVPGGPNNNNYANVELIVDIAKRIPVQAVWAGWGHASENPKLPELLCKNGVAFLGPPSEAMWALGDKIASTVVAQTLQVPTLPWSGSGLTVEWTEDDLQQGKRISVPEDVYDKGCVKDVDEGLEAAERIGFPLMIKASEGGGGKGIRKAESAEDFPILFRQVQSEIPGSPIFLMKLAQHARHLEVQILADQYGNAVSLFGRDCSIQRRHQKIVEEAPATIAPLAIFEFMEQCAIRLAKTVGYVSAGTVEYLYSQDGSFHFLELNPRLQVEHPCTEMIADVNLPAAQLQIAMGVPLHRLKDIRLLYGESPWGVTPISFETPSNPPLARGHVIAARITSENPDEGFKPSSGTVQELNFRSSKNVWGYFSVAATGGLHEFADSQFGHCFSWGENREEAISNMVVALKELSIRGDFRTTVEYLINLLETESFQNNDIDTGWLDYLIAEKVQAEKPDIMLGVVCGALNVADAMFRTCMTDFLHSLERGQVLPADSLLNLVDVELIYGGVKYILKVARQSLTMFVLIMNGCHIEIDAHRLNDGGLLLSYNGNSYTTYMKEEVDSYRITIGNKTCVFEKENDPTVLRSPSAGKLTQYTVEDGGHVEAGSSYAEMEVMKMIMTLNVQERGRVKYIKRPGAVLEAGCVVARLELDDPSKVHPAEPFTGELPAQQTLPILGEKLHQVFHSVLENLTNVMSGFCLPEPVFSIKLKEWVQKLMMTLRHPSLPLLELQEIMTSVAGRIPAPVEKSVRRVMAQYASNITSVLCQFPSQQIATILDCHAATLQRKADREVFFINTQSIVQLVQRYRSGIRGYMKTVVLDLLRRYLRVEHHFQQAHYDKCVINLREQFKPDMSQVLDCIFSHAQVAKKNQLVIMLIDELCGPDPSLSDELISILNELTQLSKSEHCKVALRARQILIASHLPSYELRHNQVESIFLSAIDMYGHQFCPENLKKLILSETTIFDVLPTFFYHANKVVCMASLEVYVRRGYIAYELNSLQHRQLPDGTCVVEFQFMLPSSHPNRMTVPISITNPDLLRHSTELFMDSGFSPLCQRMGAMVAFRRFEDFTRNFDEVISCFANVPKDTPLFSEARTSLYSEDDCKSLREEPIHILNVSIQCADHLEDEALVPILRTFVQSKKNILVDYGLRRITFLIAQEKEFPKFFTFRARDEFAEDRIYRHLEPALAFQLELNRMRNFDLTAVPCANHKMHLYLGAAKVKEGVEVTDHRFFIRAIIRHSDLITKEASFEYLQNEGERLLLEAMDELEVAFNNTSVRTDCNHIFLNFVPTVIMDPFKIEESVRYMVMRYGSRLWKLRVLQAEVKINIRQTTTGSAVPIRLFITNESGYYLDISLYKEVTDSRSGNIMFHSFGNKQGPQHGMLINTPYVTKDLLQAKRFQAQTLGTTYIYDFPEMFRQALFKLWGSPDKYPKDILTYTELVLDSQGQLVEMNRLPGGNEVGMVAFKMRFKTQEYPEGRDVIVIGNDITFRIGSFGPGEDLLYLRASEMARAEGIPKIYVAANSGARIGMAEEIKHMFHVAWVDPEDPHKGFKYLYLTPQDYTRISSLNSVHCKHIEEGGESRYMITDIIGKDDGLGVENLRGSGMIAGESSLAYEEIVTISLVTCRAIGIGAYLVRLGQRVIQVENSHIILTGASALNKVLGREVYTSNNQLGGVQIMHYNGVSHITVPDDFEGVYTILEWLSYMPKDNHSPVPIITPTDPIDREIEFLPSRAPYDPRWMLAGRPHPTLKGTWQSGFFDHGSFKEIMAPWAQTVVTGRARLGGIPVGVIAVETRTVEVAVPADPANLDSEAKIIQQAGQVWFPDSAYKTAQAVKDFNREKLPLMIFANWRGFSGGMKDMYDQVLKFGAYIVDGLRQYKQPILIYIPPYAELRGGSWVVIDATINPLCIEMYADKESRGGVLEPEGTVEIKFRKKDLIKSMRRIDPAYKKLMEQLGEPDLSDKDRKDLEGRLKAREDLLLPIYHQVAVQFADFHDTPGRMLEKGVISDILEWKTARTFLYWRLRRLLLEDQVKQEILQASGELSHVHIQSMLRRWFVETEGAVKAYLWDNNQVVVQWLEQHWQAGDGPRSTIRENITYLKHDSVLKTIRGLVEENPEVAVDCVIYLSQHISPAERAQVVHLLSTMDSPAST

Row | IC50 [1] [µM] | IC50 [2] [nM] | Structure (SMILES)
1 | > 20 | 3170 | CC(C)(C)OC(=O)NC[C@H]1CC[C@H](CN(CC2CCOCC2)S(=O)(=O)c2ccc3ccccc3c2)CC1 [Example 82, tert-Butyl [(trans-4-{[(2-naphthylsulfonyl)(tetrahydro-2H-pyran-4-ylmethyl)amino]-methyl}cyclohexyl)methyl]carbamate]
2 | 18.3 | 6140 | CC(C)(C)NC(=O)NC[C@H]1CC[C@H](CNC(=O)c2cc(-c3ccncc3)nc3ccccc23)CC1 [Example 97, N-[(trans-4-{[(tert-Butylcarbamoyl)amino]methyl}cyclohexyl)methyl]-2-pyridin-4-ylquinoline-4-carboxamide]
3 | > 20 | 2480 | CC(C)(C)OC(=O)NC[C@H]1CC[C@H](CNS(=O)(=O)c2ccc(-c3ccno3)s2)CC1 [Example 72, tert-Butyl {[trans-4-({[(5-isoxazol-5-yl-2-thienyl)sulfonyl]amino}methyl)cyclo-hexyl]methyl}carbamate]
4 | 0.11 | 30 | CC(C)(C)OC(=O)NC[C@H]1CC[C@H](CNC(=O)c2cc(-c3ccc(CNC(N)=O)cc3)nc3ccccc23)CC1 [Example 105, tert-Butyl {[trans-4-({[(2-{4-[(carbamoylamino)methyl]phenyl}quinolin-4-yl)carbonyl]amino}methyl)cyclohexyl]methyl}carbamate]
5 | 1.21 | 400 | O=C(NC[C@H]1CC[C@H](CNC(=O)c2cc(-c3ccncc3)nc3ccccc23)CC1)OC1CCCC1 [Example 56, Cyclopentyl {[trans-4-({[(2-pyridin-4-ylquinolin-4-yl)carbonyl]amino}methyl)cyclo-hexyl]methyl}carbamate]
6 | > 20 | 2870 | Cc1noc(C)c1-c1cc(C(=O)NC[C@H]2CC[C@H](CNC(=O)OC(C)(C)C)CC2)c2ccccc2n1 [Example 15, tert-Butyl ({trans-4-[({[2-(3,5-dimethylisoxazol-4-yl)quinolin-4-yl]carbonyl}amino)-methyl]cyclohexyl}methyl)carbamate]
7 | 4 | 220 | CC(C)(C)OC(=O)NC[C@H]1CC[C@H](CNC(=O)c2cc(-c3ccc(N4CCCC4)nc3)nc3ccccc23)CC1 [Example 144, tert-Butyl({trans-4-[({[2-(6-pyrrolidin-1-ylpyridin-3-yl)quinolin-4-yl]carbonyl}amino)methyl]cyclohexyl}methyl)carbamate]
8 | 1.52 | 650 | CC(C)(C)OC(=O)NC[C@H]1CC[C@H](CNC(=O)c2cc(-c3cnccn3)nc3ccccc23)CC1 [Example 3, tert-Butyl {[trans-4-({[(2-pyrazin-2-ylquinolin-4-yl)carbonyl]amino}methyl)cyclohexyl]methyl}carbamate]
9 | 3.41 | 680 | CNS(=O)(=O)c1ccc(-c2cc(C(=O)NC[C@H]3CC[C@H](CNC(=O)O[C@H]4CCOC4)CC3)c3ccccc3n2)cc1 [Example 137, (3S)-Tetrahydrofuran-3-yl{[trans-4-({[(2-{4-[(methylamino)sulfonyl]phenyl}quinolin-4-yl)carbonyl]amino}methyl)cyclohexyl]methyl}-carbamate]
10 | 0.59 | 110 | CC(=O)NCc1cccc(-c2cc(C(=O)NC[C@H]3CC[C@H](CNC(=O)OC(C)(C)C)CC3)c3ccccc3n2)c1 [Example 100, tert-Butyl [(trans-4-{[({2-[3-(acetamidomethyl)phenyl]quinolin-4-yl}carbonyl)amino]-methyl}cyclohexyl)methyl]carbamate]
11 | 1.68 | 140 | Cc1nc(C)c(-c2cc(C(=O)NC[C@H]3CC[C@H](CNC(=O)OC(C)(C)C)CC3)c3ccccc3n2)s1 [Example 25, tert-Butyl ({trans-4-[({[2-(2,4-dimethyl-1,3-thiazol-5-yl)quinolin-4-yl]carbonyl}amino)-methyl]cyclohexyl}methyl)carbamate]
12 | 3.34 | 530 | NS(=O)(=O)c1ccc(-c2cc(C(=O)NC[C@H]3CC[C@H](CNC(=O)O[C@H]4CCOC4)CC3)c3ccccc3n2)cc1 [Example 139, (3S)-Tetrahydrofuran-3-yl[(trans-4-{[({2-[4-(aminosulfonyl)phenyl]-quinolin-4-yl}carbonyl)amino]-methyl}cyclohexyl)-methyl]carbamate]
13 | 4.85 | 1800 | CCOC(=O)NC[C@H]1CC[C@H](CNC(=O)c2cc(-c3ccc(C(=O)N(C)C)cc3)nc3ccccc23)CC1 [Example 18, Ethyl [(trans-4-{[({2-[4-(dimethylcarbamoyl)phenyl]quinolin-4-yl}carbonyl)amino]-methyl}cyclohexyl)methyl]carbamate]
14 | 0.69 | 180 | CC(C)(C)OC(=O)NC[C@H]1CC[C@H](CNC(=O)c2cc(-c3ccc(F)cc3)nc3ccccc23)CC1 [Example 14, tert-Butyl ({trans-4-[({[2-(4-fluorophenyl)quinolin-4-yl]carbonyl}amino)methyl]-cyclohexyl}methyl)carbamate]
15 | 1.64 | 650 | CN1CCN(c2ccc(-c3cc(C(=O)NC[C@H]4CC[C@H](CNC(=O)OCCF)CC4)c4ccccc4n3)cn2)CC1 [Example 118, 2-Fluoroethyl[(trans-4-{[({2-[6-(4-methylpiperazin-1-yl)pyridin-3-yl]quinolin-4-yl}carbonyl)amino]methyl}cyclohexyl)methyl]carbamate]
16 | 3.9 | 920 | CN(C)S(=O)(=O)c1ccc(-c2cc(C(=O)NC[C@H]3CC[C@H](CNC(=O)O[C@H]4CCOC4)CC3)c3ccccc3n2)cc1 [Example 141, (3S)-Tetrahydrofuran-3-yl{[trans-4-({[(2-{4-[(dimethylamino)sulfonyl]phenyl}quinolin-4-yl)carbonyl]amino}-methyl)cyclohexyl]-methyl}carbamate]
17 | 0.39 | 50 | C[C@H](CO)Nc1ccc(-c2cc(C(=O)NC[C@H]3CC[C@H](CNC(=O)OC(C)(C)C)CC3)c3ccccc3n2)cn1 [Example 149, tert-Butyl({trans-4-[({[2-(6-{[(1R)-2-hydroxy-1-methylethyl]amino}-pyridin-3-yl)quinolin-4-yl]carbonyl}amino)-methyl]cyclohexyl}-methyl)carbamate]
18 | 5.47 | 930 | CC(C)(C)OC(=O)NC[C@H]1CC[C@H](CNC(=O)c2cc(-c3cc[n+]([O-])cc3)nc3ccccc23)CC1 [Example 94, tert-Butyl ({trans-4-[({[2-(1-oxidopyridin-4-yl)quinolin-4-yl]carbonyl}amino)methyl]-cyclohexyl}methyl)carbamate]
19 | 2.59 | 30 | CC(C)(C)OC(=O)NC[C@H]1CC[C@H](CNC(=O)c2cc(-c3ccc(N4CC[C@@H](O)C4)nc3)nc3ccccc23)CC1 [Example 147, tert-Butyl{[trans-4-({[(2-{6-[(3R)-3-hydroxypyrrolidin-1-yl]pyridin-3-yl}quinolin-4-yl)carbonyl]amino}-methyl)cyclohexyl]-methyl}carbamate]
20 | > 20 | 4350 | CC(C)(C)OC(=O)NC[C@H]1CC[C@H](CNC(=O)c2ccnc(-c3cc4ccccc4s3)c2)CC1 [Example 45, tert-Butyl {[trans-4-({[2-(1-benzothiophen-2-yl)isonicotinoyl]amino}methyl)cyclo-hexyl]methyl}carbamate]
21 | > 20 | 2620 | CC(C)c1ccc(S(=O)(=O)NC[C@H]2CC[C@H](CNC(=O)OC(C)(C)C)CC2)cc1 [Example 68, tert-Butyl {[trans-4-({[(4-isopropylphenyl)sulfonyl]amino}methyl)cyclohexyl]methyl}-carbamate]
22 | 0.25 | 40 | CC(C)(C)OC(=O)NC[C@H]1CC[C@H](CNC(=O)c2cc(-c3ccc(C(N)=O)cc3)nc3ccccc23)CC1 [Example 9, tert-butyl ({trans-4-[({[2-(4-carbamoylphenyl)quinolin-4-yl]carbonyl}amino)methyl]cyclohexyl}methyl)carbamate]
23 | 0.46 | 70 | C[C@@H](CO)Nc1ccc(-c2cc(C(=O)NC[C@H]3CC[C@H](CNC(=O)OC(C)(C)C)CC3)c3ccccc3n2)cn1 [Example 148, tert-Butyl({trans-4-[({[2-(6-{[(1S)-2-hydroxy-1-methylethyl]amino}-pyridin-3-yl)quinolin-4-yl]carbonyl}amino)-methyl]cyclohexyl}-methyl)carbamate]
24 | 9.96 | 3840 | CC(C)(C)OC(=O)NC[C@H]1CC[C@H](CNC(=O)c2cc(Cl)nc3ccccc23)CC1 [Example 35, tert-butyl {[trans-4-({[(2-chloroquinolin-4-yl)carbonyl]amino}methyl)cyclohexyl]-methyl}carbamate]
25 | 16.9 | 2450 | CC(=O)Nc1cccc2c(S(=O)(=O)NC[C@H]3CC[C@H](CNC(=O)OC(C)(C)C)CC3)cccc12 [Example 71, tert-Butyl {[trans-4-({[(5-acetamido-1-naphthyl)sulfonyl]amino}methyl)cyclohexyl]-methyl}carbamate]
26 | > 20 | 3290 | CC(C)(C)OC(=O)NC[C@H]1CC[C@H](CNS(=O)(=O)c2ccc(-c3ccccc3)cc2)CC1 [Example 67, tert-Butyl [(trans-4-{[(biphenyl-4-ylsulfonyl)amino]methyl}cyclohexyl)methyl]-carbamate]

Row | Structure (SMILES) | IC50 [1] [µM] | IC50 [2] [nM]
27 | CCOC(=O)CN(C[C@H]1CC[C@H](CNC(=O)OC(C)(C)C)CC1)S(=O)(=O)c1ccc2ccccc2c1 [Example 81, Ethyl N-[(trans-4-{[(tert-butoxycarbonyl)amino]methyl}cyclohexyl)methyl]-N-(2-naphthylsulfonyl)glycinate] | > 20 | 3030
28 | COC(=O)NCc1cccc(-c2cc(C(=O)NC[C@H]3CC[C@H](CNC(=O)OC(C)(C)C)CC3)c3ccccc3n2)c1 [Example 101, Methyl [3-(4-{[(trans-4-{[(tert-butoxycarbonyl)amino]methyl}cyclohexyl)methyl]-carbamoyl}quinolin-2-yl)benzyl]carbamate] | 2.21 | 150
